Tested on: Recombinant amyloidogenic full length light chain protein WIL-FL T46L
Test: Differential Scanning Fluorimetry (thermal shift) assay
Format: binding
Settings: WIL-FL T46L protein and compound incubated at RT for 30 min before dye; compared to vehicle
Protocol: Differential Scanning Fluorimetry Assay
The stabilization effects the compounds have on the immunoglobulin light chain protein was quantitively measured using a thermal shift assay. Recombinant amyloidogenic full length light chain protein WIL-FL T46L was produced in E. coli, purified, and used in the assay. The Thermal Shift Protein Stability Kit from Biotium was used and the assay was done in 96-well Plates following the manufacturer's instructions. The protein and compounds were incubated at RT for 30 min before adding the dye and subjected to the thermal shift assay. The thermal stability (Tm) of each sample was then determined using standard curve fitting methods and compared to vehicle. Data are expressed as temperature shift: [Tm]compound−[Tm]vehicle.
The compounds provided herein induce shifts in the ranges below: • 0-0.5° C.=* • >0.5-1° C.=** • >1-1.5° C.=*** • >1.5-2.5° C.=**** • >2.5° C.=*****

SMILES	DSF temperature shift: [Tm]compound−[Tm]vehicle
Cc1cc(N2CC[C@](C)(c3ccccc3)C2)cnc1C(=O)NCCN1CC2(CCN(c3nccn4ccnc34)CC2)NC1=O (stereo in doubt) [Compound 5, N-(2-(8-(imidazo[1,2-a]pyrazin-8-yl)-2-oxo-1,3,8-triazaspiro[4.5]decan-3-yl)ethyl)-3-methyl-5-(3-methyl-3-phenylpyrrolidin-1-yl)picolinamide]	***** (>2.5° C.=*****)
C[C@]1(c2ccccc2)CCN(c2cnc(C(=O)NCCN3CC4(CCN(c5nccn6ccnc56)CC4)NC3=O)c(C(F)(F)F)c2)C1 [Compound 8]	**** (>1.5-2.5° C.=****)
Cc1cc(N2CCC(C)(c3ccccc3)C2)cnc1C(=O)NCCN1CC2(CCNCC2)NC1=O (stereo not shown) [Compound 2, 3-methyl-5-(3-methyl-3-phenylpyrrolidin-1-yl)-N-(2-(2-oxo-1,3,8-triazaspiro[4.5]decan-3-yl)ethyl)picolinamide]	**** (>1.5-2.5° C.=****)
COC(=O)c1ncc(N2CCC3(CC2)CN(CCNC(=O)c2ncc(OC[C@@H](C)c4ccccc4)cc2Cl)C(=O)N3)cc1F [Compound 18]	** (>0.5-1° C.=**)
Cc1cc(N2CC[C@](C)(c3ccccc3)C2)cnc1C(=O)NCCN1CC2(CCN(c3nccn4cnnc34)CC2)NC1=O [Compound 4]	***** (>2.5° C.=*****)
Cc1cc(N2CCC(C)(c3ccccc3)C2)cnc1C(=O)NCCN1CC2(CCN(c3nccn4ccnc34)CC2)NC1=O (stereo not shown) [Compound 14]	***** (>2.5° C.=*****)
C[C@H](COc1cnc(C(=O)NCCN2CC3(CCN(c4cnc(C(=O)O)c(F)c4)CC3)NC2=O)c(Cl)c1)c1ccccc1 [Compound 20]	** (>0.5-1° C.=**)
CCOC(=O)c1ccc(N2CCC3(CC2)CN(CCNC(=O)c2ncc(OC[C@@H](C)c4ccccc4)cc2Cl)C(=O)N3)cn1 [Compound 15]	*** (>1-1.5° C.=***)
COC(=O)c1ccc(N2CCC3(CC2)CN(CCNC(=O)c2ncc(OC[C@@H](C)c4ccccc4)cc2Cl)C(=O)N3)nn1 [Compound 19]	**** (>1.5-2.5° C.=****)
C[C@H](COc1cnc(C(=O)NCCN2CC3(CCN(c4cnccn4)CC3)NC2=O)c(Cl)c1)c1ccccc1 [Compound 24]	**** (>1.5-2.5° C.=****)
C[C@]1(c2ccccc2)CCN(c2cnc(C(=O)NCCN3CC4(CCN(c5nccn6cnnc56)CC4)NC3=O)c(Cl)c2)C1 [Compound 9]	***** (>2.5° C.=*****)
CC[C@]1(c2ccccc2)CCN(c2cnc(C(=O)NCCN3CC4(CCN(c5ccnc(C(=O)NC)c5)CC4)NC3=O)c(Cl)c2)C1 [Compound 16]	* (0-0.5° C.=*)
C[C@H](COc1cnc(C(=O)NCCN2CC3(CCN(c4ccc(C(=O)O)nn4)CC3)NC2=O)c(Cl)c1)c1ccccc1 [Compound 21]	** (>0.5-1° C.=**)
CC[C@]1(c2ccccc2)CCN(c2cnc(C(=O)NCCN3CC4(CCN(c5nccn6ccnc56)CC4)NC3=O)c(Cl)c2)C1 [Compound 10]	***** (>2.5° C.=*****)
C[C@H](COc1cnc(C(=O)NCCN2CC3(CCN(c4nccn5ccnc45)CC3)NC2=O)c(Cl)c1)c1ccccc1 (stereo in doubt) [Compound 13, 3-chloro-N-(2-(8-(imidazo[1,2-a]pyrazin-8-yl)-2-oxo-1,3,8-triazaspiro[4.5]decan-3-yl)ethyl)-5-(2-phenylpropoxy)picolinamide]	***** (>2.5° C.=*****)
Cc1cc(N2CC[C@](C)(c3ccccc3)C2)cnc1C(=O)NCCN1CC2(CCN(c3nccn4cncc34)CC2)NC1=O [Compound 3]	***** (>2.5° C.=*****)
CC(=O)N1CCC2(CC1)CN(CCNC(=O)c1ncc(N3CC[C@](C)(c4ccccc4)C3)cc1C)C(=O)N2 [Compound 25]	**** (>1.5-2.5° C.=****)
CC[C@]1(c2ccccc2)CCN(c2cnc(C(=O)NCCN3CC4(CCN(c5cncnc5)CC4)NC3=O)c(Cl)c2)C1 [Compound 17]	** (>0.5-1° C.=**)
CC[C@]1(c2ccccc2)CCN(c2cnc(C(=O)NCCN3CC4(CCN(c5nccn6cnnc56)CC4)NC3=O)c(Cl)c2)C1 [Compound 11]	***** (>2.5° C.=*****)
C[C@H](COc1cnc(C(=O)NCCN2CC3(CCN(c4nccn5cncc45)CC3)NC2=O)c(Cl)c1)c1ccccc1 [Compound 23]	***** (>2.5° C.=*****)
C[C@]1(c2ccccc2)CCN(c2cnc(C(=O)NCCN3CC4(CCN(c5nccn6ccnc56)CC4)NC3=O)c(Cl)c2)C1 [Compound 7, 3-chloro-N-(2-(8-(imidazo[1,2-a]pyrazin-8-yl)-2-oxo-1,3,8-triazaspiro[4.5]decan-3-yl)ethyl)-5-(3-methyl-3-phenylpyrrolidin-1-yl)picolinamide]	***** (>2.5° C.=*****)
C[C@H](COc1cnc(C(=O)NCCN2CC3(CCNCC3)NC2=O)c(Cl)c1)c1ccccc1 [Compound 12]	*** (>1-1.5° C.=***)
Cc1cc(N2CCC(C)(c3ccccc3)C2)cnc1CCN1C(=O)NC2(CCN(c3ncccn3)CC2)C1=O (stereo not shown) [Compound 26]	* (0-0.5° C.=*)
C[C@H](COc1cnc(C(=O)NCCN2CC3(CCN(c4ccc(C(=O)O)nc4)CC3)NC2=O)c(Cl)c1)c1ccccc1 [Compound 22]	*** (>1-1.5° C.=***)
Cc1cc(N2CC[C@@](C)(c3ccccc3)C2)cnc1C(=O)NCCN1CC2(CCN(c3nccn4ccnc34)CC2)NC1=O [Compound 6]	**** (>1.5-2.5° C.=****)

Source: patent publication US20240174673A1, “Spirocycle Containing Pyridine Compounds” (Protego Biopharma, Inc., priority 2022, published 2024)
